What follows are compounds tested against human IDO1 (Homo sapiens, UniProt P14902) (assay: Assessment of human IDO-1 inhibitory activity in HEK cells (human IDO1/HEK293 cells, Ehrlich reagent, absorbance at 490 nm)). Details: In Vitro Potency in the HEK Human IDO-1 Cellular Assay.
Assay type: cell-based
Design: expressed in transfected cells
Outline: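 Stable human IDO1-expressing HEK293 cells treated with compound for 20 h at 37 °C in phenol red-free RPMI/10% FBS. Stopped with 0.2% TCA (final) and heated 30 min at 50 °C; supernatant mixed with Ehrlich reagent, absorbance read at 490 nm. IC50 normalised to DMSO (0%) and 500 nM reference standard (100% inhibition).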

Chain of human IDO1 (P14902 whole entry): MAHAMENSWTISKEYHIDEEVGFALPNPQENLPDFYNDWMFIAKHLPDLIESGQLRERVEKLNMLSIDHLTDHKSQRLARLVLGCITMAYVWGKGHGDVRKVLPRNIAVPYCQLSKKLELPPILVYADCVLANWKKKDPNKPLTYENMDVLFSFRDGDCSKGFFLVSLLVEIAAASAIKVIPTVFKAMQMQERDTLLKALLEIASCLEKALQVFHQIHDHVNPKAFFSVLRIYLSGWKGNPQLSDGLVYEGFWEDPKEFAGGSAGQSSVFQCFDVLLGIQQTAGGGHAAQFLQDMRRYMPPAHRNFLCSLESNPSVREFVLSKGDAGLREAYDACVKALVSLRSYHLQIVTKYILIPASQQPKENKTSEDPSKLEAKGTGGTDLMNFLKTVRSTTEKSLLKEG

IC50	Compound
< 5 nM	Cc1ccc(NC(=O)Nc2cc(C(C)CC(=O)O)c(F)cc2N(CC(C)C)C2CCCCC2)cc1 (single isomer, unassigned) [Example 957, 3-(4-(Cyclohexyl(isobutyl)amino)-2-fluoro-5-(3-(p-tolyl)ureido)phenyl)butanoic acid]
< 5 nM	COCC(CC(=O)O)c1ccc(N(CC(C)C)C2CCCCC2)c(NC(=O)Nc2ccccc2F)c1 (single isomer, unassigned) [1125 E2]
> 50 nM	CCC(CC(=O)O)c1ccc(N2CC3CC2CN3Cc2ccccc2)c(NC(=O)Nc2ccc(C)cc2)c1 (single isomer, unassigned) [667 E1]
< 50 nM	CCOc1ccc(NC(=O)Nc2cc([C@@H](CC)CC(=O)O)ccc2N(CC)C2CCOCC2)cc1 (single isomer, unassigned) [Example 491]
> 50 nM	COCC(CC(=O)OC)c1ccc(N(CC(C)C)C2CCC(OC)CC2)c(NC(=O)Nc2ccc(Cl)cc2F)c1 (racemic) [Example 1148]
< 5 nM	CCC(CC(=O)O)c1cc(NC(=O)Nc2cncnc2)c(N(CC(C)C)C2CCCCC2)cc1F (single isomer, unassigned) [Example 1124, 3-(4-(Cyclohexyl(isobutyl)amino)-2-fluoro-5-(3-(pyrimidin-5-yl)ureido)phenyl)pentanoic acid]
< 50 nM	COCC(CC(=O)O)c1ccc(N(CC(C)C)C2CCCCC2)c(NC(=O)Cc2ccc(C)cc2)c1 (single isomer, unassigned) [Example 1240, 3-(4-(Cyclohexyl(isobutyl)amino)-3-(2-(p-tolyl)acetamido)phenyl)-4-methoxybutanoic acid]
< 50 nM	CCOc1cc(Nc2cc(C(CC)CC(=O)O)ccc2N(CC(C)C)C2CCCCC2)ccc1Cl (single isomer, unassigned) [Example 653, 3-(3-((4-chloro-3-ethoxyphenyl)amino)-4-(cyclohexyl(isobutyl)amino)phenyl)pentanoic acid]
> 50 nM	CCC(CC(=O)O)c1ccc(N2CCC[C@H]2C(C)(C)O)c(Nc2cnc(OC)nc2)c1 (single isomer, unassigned) [Example 841]
< 50 nM	COCC(CC(=O)O)c1cc(F)c(N(CC(C)C)C2CCCCC2)c(NC(=O)Cc2ccc(Cl)cc2F)c1 (single isomer, unassigned) [Example 1175, 3-(3-(2-(4-chloro-2-fluorophenyl)acetamido)-4-(cyclohexyl(isobutyl)amino)-5-fluorophenyl)-4-methoxybutanoic acid]
< 5 nM	CCC(CC(=O)O)c1ccc(N(CC2CC2)C2CCOCC2)c(Nc2cnc(OC)nc2)c1 (single isomer, unassigned) [Example 709, 3-(4-((cyclopropylmethyl)(tetrahydro-2H-pyran-4-yl)amino)-3-((2-methoxypyrimidin-5-yl)amino)phenyl)pentanoic acid]
< 5 nM	CCc1ccc(Nc2cc([C@@H](CC)CC(=O)O)ccc2N(CC(C)(C)O)C2CCCCC2)cc1 (single isomer, unassigned) [Example 228]
> 50 nM	CCC(CC(=O)O)c1ccc(N2CCC[C@@H]2C(C)(C)O)c(NC(=O)Nc2ccc(Cl)cc2F)c1 (single isomer, unassigned) [Example 776]
< 5 nM	CCOc1ccc(NC(=O)Nc2cc(C(COC)CC(=O)O)cc(F)c2N(CC(C)C)C2CCCCC2)c(F)c1 (single isomer, unassigned) [Example 1165, 3-(4-(cyclohexyl(isobutyl)amino)-3-(3-(4-ethoxy-2-fluorophenyl)ureido)-5-fluorophenyl)-4-methoxybutanoic acid]
> 50 nM	CCc1ccc(Nc2cc(C(CC)CC(=O)O)ccc2N2CCC[C@H]2C(C)(C)O)cc1 (single isomer, unassigned) [Example 835]
< 5 nM	COCC(CC(=O)O)c1ccc(N(CC(C)C)C2CCCCC2)c(NC(=O)Cc2ccc(Cl)cc2F)c1 (single isomer, unassigned) [Example 1246, 3-(3-(2-(4-Chloro-2-fluorophenyl)acetamido)-4-(cyclohexyl(isobutyl)amino)phenyl)-4-methoxybutanoic acid]
> 50 nM	CCC(CC(=O)O)c1ccc(N2CCC[C@@H]2C(C)(C)O)c(NC(=O)Nc2ccc(F)cc2)c1 (single isomer, unassigned) [Example 775]
> 50 nM	CC(CC(=O)O)c1ccc(N2C[C@@H](C)O[C@@H](C)C2)c(Nc2ccc(F)cc2)c1 (single isomer, unassigned) [Example 744]
< 5 nM	COCC(CC(=O)O)c1ccc(N(CC(C)C)C2CCCCC2)c(NC(=O)Nc2ccccc2F)c1 (single isomer, unassigned) [1125 E1]

IC50	Compound
< 50 nM	Cc1cc(CC(=O)Nc2cc(C(CC(=O)O)C3CC3)ccc2N(CC(C)C)C2CCCCC2)no1 (single isomer, unassigned) [Example 1252, 3-(4-(Cyclohexyl(isobutyl)amino)-3-(2-(5-methylisoxazol-3-yl)acetamido)phenyl)-3-cyclopropylpropanoic acid]
< 5 nM	CCC(CC(=O)O)c1ccc(N(CC2CC2)C(C)C)c(Nc2ccc(Cl)cc2)c1 (single isomer, unassigned) [Example 717, 3-(3-((4-chlorophenyl)amino)-4-((cyclopropylmethyl)(isopropyl)amino)phenyl)pentanoic acid]
< 50 nM	CCC(CC(=O)O)c1ccc(N(CC2CC2)C2CCOCC2)c(Nc2ccc3nc(C)sc3c2)c1 (single isomer, unassigned) [Example 707, 3-(4-((Cyclopropylmethyl)(tetrahydro-2H-pyran-4-yl)amino)-3-((2-methylbenzo[d]thiazol-6-yl)amino)phenyl)pentanoic acid]
< 50 nM	3-(4-((1,1-dioxidotetrahydro-2H-thiopyran-4-yl)(ethyl)amino)-3-((4-fluorophenyl)amino)phenyl)-4-isopropoxybutanoic acid [Example 300]
< 5 nM	CCC(CC(=O)O)c1ccc(N(CC(C)C)C2CCCCC2)c(NC(=O)Cc2ccc(C)cc2)c1 (racemic) [Example 1084]
< 5 nM	CCOc1ncc(Nc2cc(C(CC)CC(=O)O)ccc2N(CC)C2CCCOC2)cn1 (single isomer, unassigned) [Example 72, 3-(3-((2-ethoxypyrimidin-5-yl)amino)-4-(ethyl(tetrahydro-2H-pyran-3-yl)amino)phenyl)pentanoic acid]
< 50 nM	CCOc1ccc(NC(=O)Nc2cc(C(CC(=O)O)C3CC3)ccc2N(CC(C)C)C2CCOCC2)cc1 (single isomer, unassigned) [Example 1205 Enantiomer 2, 3-Cyclopropyl-3-(3-(3-(4-ethoxyphenyl)ureido)-4-(isobutyl(tetrahydro-2H-pyran-4-yl)amino)phenyl)propanoic acid]
< 50 nM	Cc1ccc(NC(=O)Nc2cc(C(C)CC(=O)O)ccc2N(CC(C)C)C2CCOCC2)cc1 (single isomer, unassigned) [Example 965, 3-(4-(isobutyl(tetrahydro-2H-pyran-4-yl)amino)-3-(3-(p-tolyl)ureido)phenyl)butanoic acid]
< 5 nM	CCC(CC(=O)O)c1cc(F)c(N(CC(C)C)CC(C)C)c(NC(=O)Nc2ccc(C)c(F)c2)c1 (single isomer, unassigned) [Example 982-2]
< 5 nM	CCC(CC(=O)O)c1cc(F)c(N(CC(C)C)CC(C)C)c(Nc2ccc(C#N)cc2)c1 (single isomer, unassigned) [Example 123, 3-(3-((4-cyanophenyl)amino)-4-(diisobutylamino)-5-fluorophenyl)pentanoic acid]
< 5 nM	CCC(CC(=O)O)c1cc(NC(=O)Nc2cnc(C)nc2)c(N(CC(C)C)C2CCCCC2)cc1F (single isomer, unassigned) [Example 1127, 3-(4-(Cyclohexyl(isobutyl)amino)-2-fluoro-5-(3-(2-methylpyrimidin-5-yl)ureido)phenyl)pentanoic acid]
< 5 nM	CCC(CC(=O)O)c1ccc(N(CC2CC2)C2CCOCC2)c(NC(=O)Nc2ccc(Cl)cc2F)c1 (single isomer, unassigned) [Example 699, 3-(3-(3-(4-Chloro-2-fluorophenyl)ureido)-4-((cyclopropylmethyl)(tetrahydro-2H-pyran-4-yl)amino)phenyl)pentanoic acid]
< 50 nM	CCC(CC(=O)O)c1ccc(N(CC(C)C)C2CCCCC2)c(Nc2ccc3c(c2)OCCO3)c1 (single isomer, unassigned) [Example 317, 3-(4-(cyclohexyl(isobutyl)amino)-3-((2,3-dihydrobenzo[b][1,4]dioxin-6-yl)amino)phenyl)pentanoic acid]
> 50 nM	CC(CC(=O)O)c1ccc(N(CC(C)(C)O)C2CCCCC2)c(Nc2ccc(Cl)c(OCC(F)(F)F)c2)c1 (single isomer, unassigned) [Example 55, 3-(3-((4-chloro-3-(2,2,2-trifluoroethoxy)phenyl)amino)-4-(cyclohexyl(2-hydroxy-2-methylpropyl)amino)phenyl) butanoic acid]
> 50 nM	CCC(CC(=O)O)c1ccc(N(CCC(C)C)C2CCCCC2)c(NC(=O)Cc2ccc(F)cc2)c1 (racemic) [Example 1089]
< 50 nM	COCC(CC(=O)O)c1ccc(N(CC(C)C)CC(C)C)c(NC(=O)Nc2ccc(C)cc2)c1 (single isomer, unassigned) [Example 993-2]
< 5 nM	CCC(CC(=O)O)c1ccc(N(CC(C)C)CC(C)C)c(NC(=O)Cc2ccc(C#N)cc2)c1 (single isomer, unassigned) [Example 1105, 3-(3-(2-(4-Cyanophenyl)acetamido)-4-(diisobutylamino)phenyl)pentanoic acid]
< 50 nM	CCN(c1ccc(C(CC(=O)O)c2ccccc2)cc1Nc1ccc(OC(F)F)cc1)C1CCOCC1 (single isomer, unassigned) [Example 593, 3-(3-((4-(difluoromethoxy)phenyl)amino)-4-(ethyl(tetrahydro-2H-pyran-4-yl)amino)phenyl)-3-phenylpropanoic acid]

Reference: patent publication US10399932B2, “Inhibitors of indoleamine-2,3-dioxygenase for the treatment of cancer” (BRISTOL-MYERS SQUIBB COMPANY, priority 2015, dated 2019)
